# Assay results published in patent publication US8557796B2, “Substituted 1-oxa-2,8-diaza-spiro [4,5] dec-2-ene derivatives and related treatment methods” (Gruenenthal GmbH, priority 2001, dated 2013).
# Test system: batrachotoxin (BTX) binding site (binding site 2) of the sodium channel
# Test: Bond test on the sodium channel, binding site 2 (BTX bond), [3H]-batrachotoxinin A20 α-benzoate displacement
# Settings: rat cerebrocortex synaptosomes
row,Structure (SMILES),"BTX bond, 10 μM, % inhibition"
1,"O=C(NCc1ccccc1)C1=NOC2(CCN(C(=O)c3ccc(Br)cc3)CC2)C1 [Example 212, 8-(4-bromo-benzoyl)-1-oxa-2,8-diaza-spiro[4,5]dec-2-ene-3-carboxylic acid benzylamide]",58%
2,"CCOC(=O)C1CCCCN1C(=O)C1=NOC2(CCN(C(=O)c3ccc(C(C)(C)C)cc3)CC2)C1 (centres unmarked) [Example 195, 1-[8-(4-tert-butyl-benzoyl)-1-oxa-2,8-diaza-spiro[4,5]dec-2-ene-3-carbonyl]-piperidine-2-carboxylic acid ethyl ester]",85%
3,"O=C(NCc1ccccc1F)C1=NOC2(CCN(S(=O)(=O)c3ccc(F)cc3)CC2)C1 [Example 207, 8-(4-fluoro-benzenesulphonyl)-1-oxa-2,8-diaza-spiro[4,5]dec-2-ene-3-carboxylic acid 2 fluorobenzylamide]",56%
4,C=CCOC(=O)C(CC(=O)OC(C)(C)C)NC(=O)C1=NOC2(CCN(S(=O)(=O)c3cc(Cl)ccc3Cl)CC2)C1 (centres unmarked) [Example 53],47%
5,"O=C(NC1CCCC1)C1=NOC2(CCN(C(=O)c3cccnc3Oc3ccccc3)CC2)C1 [Example 153, 8-(2-phenoxy-pyridine-3-carbonyl)-1-oxa-2,8-diaza-spiro[4,5]dec-2-ene-3-carboxylic acid cyclopentylamide]",41%
6,"O=C(NCc1ccccc1)C1=NOC2(CCN(C(=O)c3ccncc3)CC2)C1 [Example 102, 8-(pyridine-4-carbonyl)-1-oxa-2,8-diaza-spiro[4,5]dec-2-ene-3-carboxylic acid benzylamide]",43%
7,"COC(=O)C(Cc1c[nH]c2ccccc12)NC(=O)C1=NOC2(CCN(S(=O)(=O)c3ccc(OC(F)(F)F)cc3)CC2)C1 (centres unmarked) [Example 1, 3-(1H-indo1-3-yl)-2-{[8-(4-trifluoromethoxy-benzene-sulphonyl)-1-oxa-2,8-diaza-spiro[4,5]dec-2-ene-3-carbonyl]-amino}-propionic acid methyl ester]",68%
8,"O=C(NCc1ccccc1)C1=NOC2(CCN(S(=O)(=O)c3cccs3)CC2)C1 [Example 136, 8-(thiophene-2-sulphonyl)-1-oxa-2,8-diaza-spiro[4,5]dec-2-ene-3-carboxylic acid benzylamide]",44%
9,"CN(C)S(=O)(=O)N1CCC2(CC1)CC(C(=O)N1CCN(Cc3ccc4ccccc4c3)CC1)=NO2 [Example 65, 3-(4-naphthalen-2-ylmethyl-piperazine-1-carbonyl)-1-oxa-2,8-diaza-spiro[4,5]dec-2-ene-8-sulphonic acid dimethylamide]",67%
10,"O=C(NC1CCCC1OCc1ccccc1)C1=NOC2(CCN(S(=O)(=O)c3cccc(C(F)(F)F)c3)CC2)C1 (centres unmarked) [Example 201, 8-(3-trifluoromethyl-benzenesulphonyl)-1-oxa-2,8-diaza-spiro[4,5]dec-2-ene-3-carboxylic acid (2-benzyloxy-cyclopentyl)-amide]",61%
11,"O=C(NCC1CC1)C1=NOC2(CCN(C(=O)c3ccc(SC(F)(F)F)cc3)CC2)C1 [Example 108, 8-(4-trifluoromethylsulphanyl-benzoyl)-1-oxa-2,8-diaza-spiro[4,5]dec-2-ene-3-carboxylic acid cyclopropylmethyl-amide]",43%
12,CN(CCCNC(=O)C1=NOC2(CCN(S(=O)(=O)c3ccc(Cl)s3)CC2)C1)c1ccccc1 [Example 89],81%
13,O=C(NCCN1CCCC1)C1=NOC2(CCN(S(=O)(=O)c3ccc(F)c(Cl)c3)CC2)C1 [Example 11],69%
14,"O=C(NCc1cccs1)C1=NOC2(CCN(C(=O)c3ccccc3Cl)CC2)C1 [Example 152, 8-(2-chloro-benzoyl)-1-oxa-2,8-diaza-spiro[4,5]dec-2-ene-3-carboxylic acid (thiophen-2-ylmethyl)-amide]",56%
15,O=C(NC1CCCC1OCc1ccccc1)C1=NOC2(CCN(S(=O)(=O)c3ccc(Cl)s3)CC2)C1 (centres unmarked) [Example 191],75%
16,"O=C(NCc1cccs1)C1=NOC2(CCN(C(=O)c3ccc(SC(F)(F)F)cc3)CC2)C1 [Example 135, 8-(4-trifluoromethylsulphanyl-benzoyl)-1-oxa-2,8-diaza-spiro[4,5]dec-2-ene-3-carboxylic acid (thiophen-2-ylmethyl)-amide]",85%
17,"Cc1ccc(S(=O)(=O)N2CCC3(CC2)CC(C(=O)NCc2cc(Cl)cc(Cl)c2)=NO3)cc1 [Example 63, 8-(toluene-4-sulphonyl)-1-oxa-2,8-diaza-spiro[4,5]dec-2-ene-3-carboxylic acid 3,5-dichlorobenzylamide]",38%
18,"O=C(C1=NOC2(CCN(S(=O)(=O)c3ccc(Cl)s3)CC2)C1)N1CCN(c2ccc(F)cc2)CC1 [Example 91, [8-(5-chloro-thiophene-2-sulphonyl)-1-oxa-2,8-diaza-spiro[4,5]dec-2-en-3-yl]-[4-(4-fluorophenyl)-piperazin-1-yl]-methanone]",72%

row,Structure (SMILES),"BTX bond, 10 μM, % inhibition"
1,"Cc1onc(-c2c(F)cccc2Cl)c1C(=O)N1CCC2(CC1)CC(C(=O)NCc1ccccc1)=NO2 [Example 177, 8-[3-(2-chloro-6-fluorophenyl)-5-methyl-isoxazole-4-carbonyl]-1-oxa-2,8-diaza-spiro [4,5]dec-2-ene-3-carboxylic acid benzylamide]",45%
2,"O=C(NCC1COc2ccccc2O1)C1=NOC2(CCN(S(=O)(=O)c3cccs3)CC2)C1 (centres unmarked) [Example 21, 8-(thiophene-2-sulphonyl)-1-oxa-2,8-diaza-spiro[4,5]dec-2-ene-3-carboxylic acid (2,3-dihydro-benzo[1,4]dioxin-2-ylmethyl)-amide]",63%
3,"CCSc1ncccc1C(=O)N1CCC2(CC1)CC(C(=O)NCc1ccccc1)=NO2 [Example 115, 8-(2-ethylsulphanyl-pyridine-3-carbonyl)-1-oxa-2,8-diaza-spiro[4,5]dec-2-ene-3-carboxylic acid benzylamide]",48%
4,"O=C(NCc1ccccc1)C1=NOC2(CCN(C(=O)COc3cccc(Cl)c3)CC2)C1 [Example 166, 8-[2-(3-chloro-phenoxy)-acetyl]-1-oxa-2,8-diaza-spiro[4,5]dec-2-ene-3-carboxylic acid benzylamide]",58%
5,"CN(Cc1cccnc1)C(=O)C1=NOC2(CCN(S(=O)(=O)c3cc(Cl)ccc3Cl)CC2)C1 [Example 92, 8-(2,5-dichloro-benzenesulphonyl)-1-oxa-2,8-diaza-spiro[4,5]dec-2-ene-3-carboxylic acid methyl-pyridin-3-ylmethyl-amide]",65%
6,"O=C(NCc1cccs1)C1=NOC2(CCN(S(=O)(=O)c3ccc([N+](=O)[O-])cc3)CC2)C1 [Example 38, 8-(4-nitro-benzenesulphonyl)-1-oxa-2,8-diaza-spiro[4,5]dec-2-ene-3-carboxylic acid (thiophen-2-ylmethyl)-amide]",65%
7,"Cc1ccc(F)cc1S(=O)(=O)N1CCC2(CC1)CC(C(=O)NCCN(C)C)=NO2 [Example 37, 8-(5-fluoro-2-methyl-benzenesulphonyl)-1-oxa-2,8-diaza-spiro[4,5]dec-2-ene-3-carboxylic acid (2-dimethylamino-ethyl)-amide]",70%
8,"COc1ccc(S(=O)(=O)N2CCC3(CC2)CC(C(=O)NC2CC2c2ccccc2)=NO3)cc1 (centres unmarked) [Example 182, 8-(4-methoxy-benzenesulphonyl)-1-oxa-2,8-diaza-spiro[4,5]dec-2-ene-3-carboxylic acid (2-phenyl-cyclopropyl)-amide]",47%
9,"O=C(NCc1ccccc1)C1=NOC2(CCN(C(=O)COCc3ccccc3)CC2)C1 [Example 171, 8-(2-benzyloxy-acetyl)-1-oxa-2,8-diaza-spiro[4,5]dec-2-ene-3-carboxylic acid benzylamide]",44%
10,"CCN(CCNC(=O)C1=NOC2(CCN(S(=O)(=O)N(C)C)CC2)C1)c1cccc(C)c1 [Example 216, 8-dimethylsulphamoyl-1-oxa-2,8-diaza-spiro[4,5]dec-2-ene-3-carboxylic acid [2-(ethyl-m-tolyl-amino)-ethyl]amide]",64%
11,"O=C(NC1CCN(Cc2ccc3ccccc3c2)C1)C1=NOC2(CCN(S(=O)(=O)c3ccc(Cl)s3)CC2)C1 (centres unmarked) [Example 50, 8-(5-chloro-thiophene-2-sulphonyl)-1-oxa-2,8-diaza-spiro[4,5]dec-2-ene-3 carboxylic acid (1-naphthalen-2-ylmethyl-pyrrolidin-3-yl)-amide]",87%
12,"CN(C)S(=O)(=O)N1CCC2(CC1)CC(C(=O)N1CCN(Cc3ccc(C(C)(C)C)cc3)CC1)=NO2 [Example 189, 3-[4-(4-tert-butyl-benzyl)-piperazine-1-carbonyl]-1-oxa-2,8-diaza-spiro[4,5]dec-2-ene-8-sulphonic acid dimethylamide]",69%
13,O=C(C1=NOC2(CCN(S(=O)(=O)c3ccc(F)cc3)CC2)C1)N1CCN(C2CCCCCC2)CC1 [Example 218],79%
14,"O=C(NCCCc1ccccc1)C1=NOC2(CCN(S(=O)(=O)c3ccc(F)cc3)CC2)C1 [Example 193, 8-(4-fluoro-benzenesulphonyl)-1-oxa-2,8-diaza-spiro[4,5]dec-2-ene-3-carboxylic acid (3-phenyl-propyl)-amide]",66%
15,"O=C(Nc1ccccc1)C1=NOC2(CCN(C(=O)c3cccc(Cl)c3Cl)CC2)C1 [Example 172, 8-(2,3-dichloro-benzoyl)-1-oxa-2,8-diaza-spiro[4,5]dec-2-ene-3-carboxylic acid phenylamide]",60%
16,"Cc1cccc(N2CCN(C(=O)C3=NOC4(CCN(S(=O)(=O)c5cccs5)CC4)C3)CC2C)c1 (stereo not drawn) [Example 31, (3-methyl-4-m-tolyl-piperazin-l-yl)-[8-(thiophene-2-sulphonyl)-1-oxa-2,8-diaza-spiro[4,5]dec-2-en-3-yl]-methanone]",80%
17,"N#CCCN(Cc1cccnc1)C(=O)C1=NOC2(CCN(S(=O)(=O)c3cc(Cl)ccc3Cl)CC2)C1 [Example 99, 8-(2,5-dichloro-benzenesulphonyl)-1-oxa-2,8-diaza-spiro[4,5]dec-2-ene-3-carboxylic acid (2-cyano-ethyl)-pyridin-3-ylmethyl-amide]",50%
